Patent US7635686B2, “Therapeutically useful triethyleneglycol cholesteryl oligonucleotides” (Bioniche Life Sciences, Inc., priority 2001, dated 2009)
{TEG-Chol} = cholesteryl attached through a triethylene glycol (TEG) linker

Assays:
Hs578T cells [1] = experiment: Cell cycle progression in Hs578T multicellular spheroids (PI staining); format: cell-based, human; settings: 53 μM, 72 hrs, FIG. 5
Method: Multicellular spheroids (MS) is an example of a special in vitro assay, in which tumor cells are cultured in a 3-dimensional manner to form a “tumor-like” structure. In this system, there is a reinforcement of cell-cell interactions that mimic microenvironmental conditions of malignant cells in solid tumors in vivo. In this type of assay, no extracellular matrix components are added. Cells cultured in this MS system differ from those in 2-dimensional systems (monolayer culture conditions). Some of these differences are related to structural and functional differentiation of tumor cells, changes in the cell cycle of tumor cells, “multicellular drug resistance”, and changes in the diffusion and penetration of drugs throughout layers of tumor cells (reviewed in Green et al., Anticancer Drug Des. 14:153, 1999).
About 100×10^3 Hs578T cells per spheroid were cultured in presence of 53 μM final concentration of SEQ ID NO:3, SEQ ID NO:7, 53 μM final concentration of cholesteryl-TEG phosphoramidite (cholTEG) or corresponding control media (regular culture medium (RCM), RCM with the same amount of water (RCMW) as the amount added with the SEQ ID NO:7, and RCM with the same amount of acetonitrile (RCMA) as the amount added with cholesteryl-TEG phosphoramidite). Five spheroids per each experimental condition were cultured for 72 hrs. Afterwards, cell cycle progression was evaluated by propidium iodide (PI) staining (Calbiochem, Novabiochem Corporation, San Diego, Calif.) using a FACScalibur flow cytometer (Becton Dickinson, Franklin Lakes, N.J.). Changes in the percentage of cells in the different phases of the cell cycle were analyzed using MODFIT LT software (Verity Software House Inc).

EL-4 cells = experiment: Apoptosis by phosphatidylserine redistribution (annexin V flow cytometry) in EL-4 cells; format: cell-based, murine; settings: 24 hours; for Percentage of positive cells for phosphatidylserine (cells in apoptosis) in EL-4 cells: untreated cells 7%
Method: (§1) Redistribution of plasma membrane phosphatidylserine is a characteristic of cells undergoing apoptosis (Martin et al., J. Exp. Med., 182:1545, 1995). The redistribution of phosphatidylserine in the plasma membrane during apoptosis was measured by flow cytometry using FITC (fluorescein isothiocyanate)-conjugated annexin V (BD Pharmingen, San Diego, Calif.). MEG-01 cells, a human chronic myelogeneous leukemia cell line positive for the Philadelphia chromosome and having a BCR-ABL gene fusion, were incubated at 2.5×10^5 cells/ml for 48 hours with 5.3, 26.5 and 53.0 μM final concentrations of SEQ ID NO:1, SEQ ID NO:2, SEQ ID NO:5, SEQ ID NO:6 and cholesteryl-TEG phosphoramidite molecule. The percentage of cells in apoptosis after exposure to the SEQ ID NOs:1, 2, 5, 6, or cholesteryl-TEG phosphoramidite treatment is reported in Table 2. The percentage of apoptosis in untreated MEG-01 cells was 12%.
EL-4 cells, a murine T lymphoma cell line, were incubated at 2.5×10^5 cells/ml for 24 hours with 0.53, 5.3 and 53.0 μM concentrations of SEQ ID NO:3, SEQ ID NO:7 or cholesteryl-TEG phosphoramidite. The percentage of cells in apoptosis after exposure to SEQ ID NO:3, SEQ ID NO:7 or cholesteryl-TEG phosphoramidite treatment is reported in Table 3. The percentage of apoptosis in untreated EL-4 cells was 7%.

[2] = tested on: MDA-MB-231 (MDA-231) cells; experiment: Treatment of pre-formed 3-dimensional MDA-231 structures on MATRIGEL; format: cell-based, human; settings: MDA-231, 53 μM, repeated every 3-4 days up to 17-21 days, FIG. 4
Method: The MDA-MB-231 (MDA-231) cells were cultured in regular culture medium, trypsinized and counted. 100×10^3 of MDA-231 cells were plated in regular culture medium (RCM), in wells of 24-well plates coated with 350 μl of MATRIGEL®. After the formation of 3-dimensional structures during 48 hrs without any treatment, the medium was changed, and structures were exposed to a final concentration of 53 μM of SEQ ID NO:3, 53 μM of SEQ ID NO:7, 53 μM of cholesteryl-TEG phosphoramidite, RCM, or their respective control media (RCM with water, RCM with DMSO or RCM with acetonitrile). The treatments were repeated every 3-4 days until a maximum time in culture of 17-21 days. The experiment was repeated three times. Digital photographs of the cells in the 24-well plates were taken using a Nikon Coolpix 990 digital camera connected to a Nikon inverted microscope model TMS.

[3] = tested on: MDA-MB-231 (MDA-231) cells; experiment: Cellular proliferation of MDA-231 cells (Trypan blue exclusion count); format: cell-based, human; settings: MDA-231, 53 μM
Method: (§2) Either 20×10^3 MDA-MB-231 (MDA-231) or Hs578T cells were plated into individual wells of 24-well plates in regular culture medium (RCM) presence or absence (control) of 53 μM (final concentration) of SEQ ID NO:3, SEQ ID NO:7, 53 μM cholesteryl-TEG phosphoramidite, or corresponding control media (regular culture medium (RCM) for SEQ ID NO:3, RCM with the same amount of water as the amount added with the SEQ ID NO:7, and RCM with the same amount of acetonitrile as the amount added with cholesteryl-TEG phosphoramidite). Cells were cultured for 72 hrs, removed with trypsin and counted with an hemocytometer using the Trypan blue exclusion technique. Results of three independent assays (mean and standard deviation (s.d.) of percentage of changes compared to controls) are shown in Table 9.

Hs578T cells [4] = experiment: Cellular proliferation of Hs578T cells (Trypan blue exclusion count); format: cell-based, human; settings: 53 μM
Method: as §2

MEG-01 cells = experiment: Apoptosis by phosphatidylserine redistribution (FITC-annexin V flow cytometry) in MEG-01 cells; format: cell-based, human; settings: 48 hours; for Percentage of positive cells for phosphatidylserine (cells in apoptosis) in MEG-01 cells: untreated cells 12%
Method: as §1

MCF-7 cells = experiment: Treatment of pre-formed 3-dimensional MCF-7 structures on MATRIGEL; format: cell-based, human; settings: MCF-7, 53 μM, repeated every 3-4 days up to 19-20 days, FIG. 3
Method: MCF-7 cells were cultured in regular culture medium (RCM), trypsinized and counted. 150×10^3 of MCF-7 cells, in wells of 24-well plates coated with 350 μl of MATRIGEL®. After the formation of 3-dimensional structures during 48 hrs without any treatment, the medium was changed and the structures were exposed to a final concentration of 53 μM of SEQ ID NO:3, 53 μM of SEQ ID NO:7, 53 μM of cholesteryl-TEG phosphoramidite, RCM or their respective control media (RCM with water, RCM with DMSO, or RCM with acetonitrile). The treatments were repeated every 3-4 days until a maximum time in culture of 19-20 days. The experiment was repeated three times. Digital photographs of the cells in the 24-well plates were taken using a Nikon Coolpix 990 digital camera connected to a Nikon inverted microscope model TMS.

Hs578T cells [5] = experiment: MATRIGEL outgrowth after 1 hr pre-incubation, Hs578T; format: cell-based, human; settings: 53 μM pre-incubation 1 hr, 3 days on MATRIGEL, FIG. 1 and FIG. 2
Method: (§3) Various in vitro and in vivo assays may be used to evaluate the influence of the extracellular microenvironment on behavior of normal cells and tumor cells. Such assays may employ MATRIGEL® (Becton Dickinson, Franklin Lakes, N.J.), which is a solubilized basement membrane preparation extracted from the Engelbreth-Holm-Swarm murine sarcoma.
(§4) MCF-7, MDA-MB-231 (MDA-231), Hs578T and Mpanc-96 cells were cultured separately in regular culture medium, trypsinized, and counted. 100×10^3 of MDA-231 cells, 100×10^3 of Hs578T cells, 150×10^3 of MCF-7 cells and 150×10^3 of Mpanc-96 cells were separately pre-incubated for 1 hr at 37° C. in a final concentration of 53 μM of SEQ ID NO:1, 53 μM of SEQ ID NO:5 or RCM, and plated on top of MATRIGEL®-coated plates (MATRIGEL® Basement membrane matrix coated cellware 24-well plate,) for 3 days. Plates were fixed with 10% formalin. Digital photographs of the cells in the 24-well plates were taken using a Nikon Coolpix 990 digital camera (Nikon Corporation, Tokyo, Japan) connected to a Nikon inverted microscope model TMS.
(§5) MDA-MB-231 (MDA-231) and Hs578T were cultured in regular culture medium, trypsinized and counted. 100×10^3 of MDA-MB-231 cells or 100×10^3 of Hs578T cells, were separately pre-incubated for 1 hr at 37° C. in a final concentration of 53 μM of SEQ ID NO:4, 53 μM of SEQ ID NO:8 or RCM and plated on MATRIGEL®-coated plates for 3 days. Plates were fixed with 10% formalin. Digital photographs of the cells in the 24-well plates were taken using a Nikon Coolpix 990 digital camera (Nikon Corporation, Tokyo, Japan) connected to a Nikon inverted microscope model TMS.

[6] = tested on: MDA-MB-231 (MDA-231) cells; experiment: MATRIGEL outgrowth after 1 hr pre-incubation, MDA-231; format: cell-based, human; settings: MDA-231, 53 μM pre-incubation 1 hr, 3 days on MATRIGEL, FIG. 1 and FIG. 2
Method: as §3, §4, §5

HIG-82 cells = experiment: HIG-82 synovial cell proliferation (MTT reduction); format: cell-based, rabbit; settings: 53 μM, 48 hours; for Inhibition of HIG-82 cell proliferation, inhibition (%): MTT
Method: Adherent HIG-82 cells, a synovial cell line, were incubated at 10×10^5 cells/ml for 48 hours with 53 μM (final concentration) of SEQ ID NO:2, SEQ ID NO:3, SEQ ID NO:4, SEQ ID NO:6, SEQ ID NO:7, or SEQ ID NO:8. Cellular proliferation was measured using dimethylthiazol-diphenyl-tetrazolium (MTT) reduction (Mosman et al., J. Immunol. Methods 65:55, 1983). MTT was measured at a wavelength of 570 nm using a multiple spectrophotometer reader (ELX800, Bio-TEK, Instruments Inc., Winooski, Vt.). The percentage of inhibition, calculated as […]

[7] = translocation of phosphatidylserine, up to 53.0 μM
[8] = cultured for 3 days, + stimulation, − inhibition, three independent assays

| Compound | Cell cycle progression in multicellular spheroids (Hs578T cells [1]) | Percentage of positive cells for phosphatidylserine (cells in apoptosis) in EL-4 cells (EL-4 cells; 0.53 μM) [%] | Percentage of positive cells for phosphatidylserine (cells in apoptosis) in EL-4 cells (EL-4 cells; 5.3 μM) [%] | Percentage of positive cells for phosphatidylserine (cells in apoptosis) in EL-4 cells (EL-4 cells; 53.0 μM) [%] | Induction of apoptosis in EL-4 cells (in words) (EL-4 cells; [7]) | Effect on pre-formed 3-dimensional structures on MATRIGEL [2] | Effect on cellular proliferation (in words) ([3]; 72 hrs) | Percentage of changes in cellular proliferation compared to controls (mean ± s.d.) [3, 8] [%] | Effect on cellular proliferation (in words) (Hs578T cells [4]; 72 hrs) | Percentage of changes in cellular proliferation compared to controls (mean ± s.d.) (Hs578T cells [4]; [8]) | Percentage of positive cells for phosphatidylserine (cells in apoptosis) in MEG-01 cells (MEG-01 cells; 5.3 μM) [%] | Percentage of positive cells for phosphatidylserine (cells in apoptosis) in MEG-01 cells (MEG-01 cells; 26.5 μM) [%] | Percentage of positive cells for phosphatidylserine (cells in apoptosis) in MEG-01 cells (MEG-01 cells; 53.0 μM) [%] | Induction of apoptosis in MEG-01 cells (in words) (MEG-01 cells; [7]) | Effect on pre-formed 3-dimensional structures on MATRIGEL (MCF-7 cells) | Formation of 3-dimensional structures / cell morphology on MATRIGEL (Hs578T cells [5]) | Formation of 3-dimensional structures / cell morphology on MATRIGEL [6] | Inhibition of proliferation of synovial HIG-82 cells (in words) (HIG-82 cells) | Inhibition of HIG-82 cell proliferation, inhibition (%) (HIG-82 cells) |
| --- | --- | --- | --- | --- | --- | --- | --- | --- | --- | --- | --- | --- | --- | --- | --- | --- | --- | --- | --- |
| COc1ccc(C(OCC(COCCOCCOCCOCCCNC(=O)O[C@H]2CC[C@@]3(C)C(=CC[C@H]4[C@@H]5CC[C@H]([C@H](C)CCCC(C)C)[C@@]5(C)CC[C@@H]43)C2)OP(OCCC#N)N(C(C)C)C(C)C)(c2ccccc2)c2ccc(OC)cc2)cc1 (some centres unmarked) [cholesteryl-TEG phosphoramidite] | did not significantly modify cell cycle progression | 7 | 7 | 7 | neither SEQ ID NO:3 nor cholesteryl-TEG phosphoramidite caused apoptosis | did not affect the 3-dimensional structures | did not significantly affect cellular proliferation | −2.3 ± 15.9 | did not significantly affect cellular proliferation | +13 ± 9.2% | 12 | 12 | 12 | inactive | did not affect the 3-dimensional structures |  |  |  |  |
| 5′OH-GTG(TEG-cholesteryl) 3′ (3' {TEG-Chol}, sugars by position and backbone not given here) [SEQ ID NO:8, 5′-OH, 3′-TEG cholesteryl synthetic oligonucleotide] |  |  |  |  |  |  |  |  |  |  |  |  |  |  |  | disrupted the growth pattern | disrupted the growth pattern | capacity to inhibit the cellular proliferation | 64 |
| 5′ OH-GTG-OH 3′ (listed as DNA, chemistry not fully specified) [SEQ ID NO:4] |  |  |  |  |  |  |  |  |  |  |  |  |  |  |  | did not change the cellular morphology | did not change the cellular morphology | did not inhibit proliferation | −7 |
